Experiments:
[1] = molecular target: murine Sca-1 (stem cell antigen-1) (murine) (UniProt P05533); assay: cell-based or functional assay
[2] = tested on: Sol8 murine myoblasts; assay: BrdU incorporation in Sol8 cells; assay type: cell-based, mouse; conditions: Sol8, differentiation conditions, PIPLC 5 U/ml
Source text: (§1) Actively growing C2C12, Sol8, and L6 skeletal myoblasts (ATCC) were maintained in DMEM with 10%, 20%, or 10% FBS, respectively. QM7 quail skeletal myoblasts (kindly provided by Charles Ordahl, UCSF) were maintained in M199 medium with 10% tryptose phosphate and 10% FBS. Myoblast differentiation was induced by culture of confluent monolayers in DMEM with 1% FBS for C2C12 and Sol8 cells, 2% horse serum for L6 cells, or M199 medium with 10% tryptase phosphate and 0.5% FBS for QM7 cells. For PIPLC treatment, 5 U/ml of PIPLC (Sigma) was added into the culture medium when cells reached confluence, and with daily media changes. […]
(§2) Cells were plated on cover slips, cultured under conditions described above in Example 1, and labeled with BrdU for 60 min using Labeling and Detection Kit I (Roche) according to the manufacturer's instructions. […] Immunofluorescence signals were acquired with a Nikon Microphot-FX fluorescence microscope and Spot imaging software. Nuclei from low-power (10×) images were analyzed to quantitate BrdU incorporation and myoblast fusion. Each culture stage was analyzed in triplicate, with data representing the mean of 10 high-power fields. Cell proliferation was calculated as percent BrdU-positive nuclei per field. Cell fusion was calculated as average number of DAPI staining nuclei per myotube.

[3] = tested on: Sca-1; assay: Sca-1 expression by immunoblot and immunostaining; assay type: cell-based, mouse; conditions: C2C12 cells
Experimental: Immunoblot analysis was performed using previously described methods (Hlaing et al., J Biol Chem, 277:23794-23799, 2002). Briefly, cells were lysed by sonication in lysis buffer (50 mM Tris-HCl, pH 7.5, 150 mM NaCl, 3 mM EDTA, 3 mM EGTA, 1% SDS, 10% glycerol), boiled for 5 min, and centrifuged at 16,000×g for 2 min. Protein concentrations of supernatants were measured by BCA assay (Pierce), and equal amounts of protein (100-200 μg) were separated by SDS-polyacrylamide gel electrophoresis. Immunoblots were analyzed with 5 μg/ml monoclonal antibody against Sca-1 (Pharmingen) or β-actin (Sigma), and 1 μg/ml HRP-conjugated goat-anti mouse IgG (Bio-Rad).
To detect Sca-1, Myf5, MyoD, and myogenin in situ, wild type and stably transfected C2C12 cells were plated on cover slips, grown as described for the indicated lengths of time, and stained with either 2.5 μg/ml monoclonal anti-Sca-1 antibody (clone E13-161.7; Pharmingen) and 4 μg/ml FITC-conjugated goat anti-rat IgG (Pharmingen), or 10 μg/ml rabbit polyclonal anti-Myf5, anti-MyoD, or anti-myogenin antibody (Santa Cruz Biotechnology) and 2 μg/ml FITC-conjugated goat anti-rabbit IgG (Molecular Probes), as previously described (Liu et al., Cell Biochem Biophys, 39:119-131, 2003).

[4] = tested on: C2C12 myoblasts; assay: BrdU incorporation (cell proliferation) in C2C12 cells; assay type: cell-based, mouse; conditions: C2C12, differentiation conditions, PIPLC 5 U/ml
Source text: as §1, §2

[5] = tested on: QM7 avian myoblasts; assay: BrdU incorporation in QM7 cells; assay type: cell-based, quail; conditions: QM7, differentiation conditions, PIPLC 5 U/ml
Source text: as §1, §2

[6] = tested on: L6 rat myoblasts; assay: Myoblast fusion assay in L6 cells; assay type: cell-based; conditions: L6, differentiation conditions, PIPLC 5 U/ml
Source text: as §1, §2

[7] = tested on: L6 rat myoblasts; assay: BrdU incorporation in L6 cells; assay type: cell-based; conditions: L6, differentiation conditions, PIPLC 5 U/ml
Source text: as §1, §2

[8] = tested on: QM7 avian myoblasts; assay: Myoblast fusion assay in QM7 cells; assay type: cell-based, quail; conditions: QM7, differentiation conditions, PIPLC 5 U/ml
Source text: as §1, §2

[9] = tested on: C2C12 myoblasts; assay: Myoblast fusion assay in C2C12 cells; assay type: cell-based, mouse; conditions: C2C12, differentiation conditions, PIPLC 5 U/ml
Source text: as §1, §2

[10] = tested on: Sol8 murine myoblasts; assay: Myoblast fusion assay in Sol8 cells; assay type: cell-based, mouse; conditions: Sol8, differentiation conditions, PIPLC 5 U/ml
Source text: as §1, §2

[11] = tested on: C2C12 cells; assay: Fyn mutant assay: GFP-positive myoblasts to myotubes; assay type: cell-based, mouse; conditions: five days in differentiation medium
Source text: This example describes the expression of wild type and mutant Fyn proteins to analyse the role of Fyn in Sca-1-mediated myogenesis. Briefly, a 1615 bp fragment of pCMV-FynDN (Ko et al., J. Biol Chem, 277:46085-46092, 2002), containing the full-length, dominant negative K299M mutant of mouse Fyn, was PCR-amplified using primers 5′-TTATGCGGCC GCATGGGCTGTG TGCAATGTAAGG-3′ (SEQ ID NO:7) and 5′-GCATGCATGC TACAGGTTT TCACCAGGTT GG-3′ (SEQ ID NO:8) and cloned into the NotI/SphI sites of pIRES-hrGFP-1a (Stratagene). The pCMV-FynDN plasmid was kindly provided by Marilyn Resh (Sloan-Kettering Cancer Center). Similarly, a 1.6 kb BamHI fragment of Fyn-Y531F (Maulon et al., Oncogene, 20:1964-1972, 2001), containing the full-length, constitutively active Y531F mutant of mouse Fyn, was cloned into the BamHI site of pIRES-hrGFP-1a (Stratagene). The Fyn-Y531F DNA was generously provided by Patrick Auberger (INSERM). […] Expression of mutants and GFP was determined by immunoblot of whole cell lysates from transfected C2C12 cells with anti-Fyn antibody (Santa Cruz Biotechnology), and immunofluorescence detection of GFP in live cells. […] Data was acquired with a Nikon Microphot-FX fluorescence microscope and Spot imaging software. […] The effect of Fyn mutants on cell fusion was measured as the ratio of GFP-positive mononuclear myoblasts to GFP-positive myotubes (cells with 2 or more nuclei).

UniProt P05533, sequence (P05533 27-112 limits assumed): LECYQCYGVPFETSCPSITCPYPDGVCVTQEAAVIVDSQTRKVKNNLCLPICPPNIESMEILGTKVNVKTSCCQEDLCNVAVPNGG

monoclonal anti-Sca-1 antibody, clone D7 (Pharmingen)
BrdU positive nuclei (proliferation), E13-161.7 and D7 in combination versus untreated (% BrdU positive nuclei) [1]: 11
nuclei per myotube (myoblast fusion), E13-161.7 and D7 in combination versus untreated (nuclei per myotube) [1]: 14

phosphatidylinositol-specific phospholipase-C [PIPLC]
BrdU incorporation [2]: 18±2 % BrdU positive nuclei
removal of Sca-1 from cell surface [3]: strips Sca-1 from the surface
BrdU incorporation [4]: 37±2 % BrdU positive nuclei
BrdU incorporation [5]: 48±5 % BrdU positive nuclei
myoblast fusion [6]: 2±1 nuclei/myotube
BrdU incorporation [7]: 20±2 % BrdU positive nuclei
myoblast fusion [8]: 1±0.2 nuclei/myotube
myoblast fusion [9]: 3±1 nuclei/myotube
myoblast fusion [10]: 5±1 nuclei/myotube

dominant-negative mutant of Fyn: Full-length dominant negative K299M mutant of mouse Fyn, co-expressed with GFP from pIRES-hrGFP-1a
ratio of transfected myoblasts to myotubes ([11]; Sca-1 antisense-expressing cells): 2.3+/−0.7

monoclonal rat anti-Sca-1 antibody, clone E13-161.7 (Pharmingen)
BrdU positive nuclei (proliferation), E13-161.7 and D7 in combination versus untreated (% BrdU positive nuclei) [1]: 11
nuclei per myotube (myoblast fusion), E13-161.7 and D7 in combination versus untreated (nuclei per myotube) [1]: 14

constitutively active form of Fyn: Full-length constitutively active Y531F mutant of mouse Fyn, co-expressed with GFP from pIRES-hrGFP-1a
ratio of transfected myoblasts to myotubes ([11]; wild type C2C12 cells): 4.9+/−1.7

Source: patent US20050260202A1, “Methods for producing proliferating muscle cells” (The Regents of the University of California, priority 2004, published 2005)
